Assay results published in patent publication US20250177383A1, “DI-CYCLOPROPYL BASED IL-17A MODULATORS AND USES THEREOF” (DICE ALPHA, INC., priority 2022, published 2025).

Legend:
IL-17A/A = target: T1, IL-17A/A (Homo sapiens, UniProt Q16552); experiment: IL-17A/A HEK-Blue Cell Assay; assay type: cell-based; details: HEK-Blue IL-17 reporter cells, IL-17A/A stimulation, 20 hours, SEAP readout; read-out: IL17 AA HEK-5 pIC50 (converted)
T1 sequence (Q16552 24-155): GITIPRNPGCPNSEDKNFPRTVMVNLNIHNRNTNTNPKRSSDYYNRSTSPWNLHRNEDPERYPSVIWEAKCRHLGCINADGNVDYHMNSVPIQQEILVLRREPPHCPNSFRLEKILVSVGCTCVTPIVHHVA
Procedure: (§1) The HEK-Blue IL-17 reporter cell line (Fisher #NC1408637) was used for cell-based IL-17A/A inhibition assays. Cells were grown and prepared for assays according to the manufacturer's instructions. This cell line consists of HEK 293 cells that were designed to expressed IL-17R^A, IL-17R^C, and the ActI adapter molecule, the combination of which, when stimulated by IL-17A/A activates a NFκB promoter and drives expression of a recombinant Secreted Alkaline Phosphatase (SEAP) protein. Media from the cells is then added to a development reagent (Quanti-Blue Substrate, Fisher #NC9711613), and read at A630.
(§2) Compounds were titrated in DMSO, with a top final compound concentration of 10 uM and added to the cells immediately before adding IL-17A/A (Genscript #Z03228). The cells, compound, and IL-17A/A were then incubated for 20 hours before media was removed for SEAP analysis. The resulting inhibition curve was then analyzed using a Dotmatics screening protocol, and IC50 values were determined using a 4-parameter nonlinear fit. DMSO was added to a universal final concentration of 0.1% to optimize background. IL-17A/A inhibition data is provided in Table 1 for selected compounds.

IL-17A/F = target: T2, IL-17A/F (Homo sapiens, UniProt Q16552+Q96PD4); experiment: IL-17A/F HEK-Blue Cell Assay; assay type: cell-based; details: HEK-Blue IL-17 reporter cells, IL-17A/F stimulation, 20 hours, SEAP readout; for IC50: read-out: IL17AF HEK Blue pIC50 (converted)
T2 sequence (Q16552 24-155): T1 sequence (Q16552 24-155)
T2 sequence (Q96PD4 31-163): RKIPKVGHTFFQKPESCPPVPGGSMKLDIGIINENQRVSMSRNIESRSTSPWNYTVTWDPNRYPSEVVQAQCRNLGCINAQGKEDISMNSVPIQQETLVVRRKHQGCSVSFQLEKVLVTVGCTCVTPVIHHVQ
Procedure: as §1, with “cell-based IL-17A/F” for “cell-based IL-17A/A”, “expressed IL-17RA,” for “expressed IL-17R^A,”, “(SEAP) geneprotein.” for “(SEAP) protein.”
as §2, with “DMSO” for “DMSO, with a top final compound concentration of 10 uM”, “(Custom from R&D systems, untagged IL-17A/F+BSA as a carrier protein).” for “(Genscript #Z03228).”, “background.” for “background. IL-17A/A inhibition data is provided in Table 1 for selected compounds.”

IC50 (IL-17A/A) [nM]	IC50 (IL-17A/F) [nM]	IL17AF HEK Blue pIC50 (IL-17A/F)	Compound
10 to 100	100 to 10000		CCC(OC)C(=O)N[C@@H](C(=O)N1CCN(C)[C@H](C)C1)[C@@H](C)c1ccc(NC(=O)[C@@H](NC(=O)C2(F)CC2)C(C2CC2)C2CC2)c(F)c1 (single isomer, unassigned) [Compound 336]
< 10		C (7>C≥5)	CCC(OC)C(=O)N[C@@H](C(=O)N1CCN(C)[C@H](C)C1)[C@@H](C)c1ccc(NC(=O)[C@@H](NC(=O)C2(F)CC2)C(C2CC2)C2CC2)c(F)c1 (single isomer, unassigned) [Compound 337]
< 10	10 to 100		CCC(OC)C(=O)N[C@@H](C(=O)N1CCN(C)[C@H](C)C1)[C@@H](C)c1ccc(NC(=O)[C@@H](NC(=O)c2ccnn2CC)C(C2CC2)C2CC2)c(F)c1 (single isomer, unassigned) [Compound 338]
10 to 100	10 to 100		CCC(=O)N[C@@H](C(=O)N1CCN(C)CC1)[C@@H](C)c1ccc(NC(=O)[C@@H](NC(=O)c2ccnn2CC)C(C2CC2)C2CC2)c(F)c1 [Compound 200]
< 10	10 to 100		CCn1nccc1C(=O)N[C@H](C(=O)Nc1ccc([C@H](C)[C@@H](NC(=O)[C@H](C)OC)C(=O)N2CCN(C)[C@H](C)C2)cc1F)C(C1CC1)C1CC1 [Compound 221]
< 10	100 to 10000		CCC(=O)N[C@@H](C(=O)N1CCN(C)[C@H](C)C1)[C@@H](C)c1ccc(NC(=O)[C@@H](NC(=O)c2nonc2C)C(C2CC2)C2CC2)c(F)c1 [Compound 246]
10 to 100	100 to 10000		CCC(=O)N[C@@H](C(=O)N1CCC[C@H](N)C1)[C@@H](C)c1ccc(NC(=O)[C@@H](NC(=O)c2ccnn2CC)C(C2CC2)C2CC2)c(F)c1 [Compound 267]
< 10	100 to 10000		CCOC(=O)N[C@@H](C)C(=O)N[C@@H](C(=O)N1CCN(C)CC1)[C@@H](C)c1ccc(NC(=O)[C@@H](NC(=O)C2(F)CC2)C(C2CC2)C2CC2)c(F)c1 [Compound 269]
< 10	100 to 10000		C[C@@H](c1ccc(NC(=O)[C@@H](NC(=O)C2(F)CC2)C(C2CC2)C2CC2)c(F)c1)[C@@H](NC(=O)N(C)C1CC1)C(=O)N1CCN(C)CC1 [Compound 270]
< 10	100 to 10000		C[C@@H]1CN(C(=O)[C@H](NC(=O)N(C)C2CC2)[C@@H](C)c2ccc(NC(=O)[C@@H](NC(=O)C3(F)CC3)C(C3CC3)C3CC3)c(F)c2)CCN1C [Compound 271]
< 10	100 to 10000		CO[C@@H](C)C(=O)N[C@@H](C(=O)N1CCN(C)[C@H](C)C1)[C@@H](C)c1ccc(NC(=O)[C@@H](NC(=O)C2(F)CC2)C(C2CC2)C2CC2)c(F)c1 [Compound 273]
< 10	100 to 10000		CCOC(=O)N1CC[C@H]1C(=O)N[C@@H](C(=O)N1CCN(C)[C@H](C)C1)[C@@H](C)c1ccc(NC(=O)[C@@H](NC(=O)C2(F)CC2)C(C2CC2)C2CC2)c(F)c1 [Compound 275]
10 to 100	100 to 10000		COC(=O)N1CC[C@H]1C(=O)N[C@@H](C(=O)N1CCN(C)CC1)[C@@H](C)c1ccc(NC(=O)[C@@H](NC(=O)C2(F)CC2)C(C2CC2)C2CC2)c(F)c1 [Compound 277]
< 10	100 to 10000		COC(=O)N1CC[C@H]1C(=O)N[C@@H](C(=O)N1CCN(C)[C@H](C)C1)[C@@H](C)c1ccc(NC(=O)[C@@H](NC(=O)C2(F)CC2)C(C2CC2)C2CC2)c(F)c1 [Compound 278]
< 10	100 to 10000		CCOC(=O)N1CCC[C@H]1C(=O)N[C@@H](C(=O)N1CCN(C)[C@H](C)C1)[C@@H](C)c1ccc(NC(=O)[C@@H](NC(=O)C2(F)CC2)C(C2CC2)C2CC2)c(F)c1 [Compound 279]
10 to 100	100 to 10000		COC(=O)N1CCC[C@H]1C(=O)N[C@@H](C(=O)N1CCN(C)CC1)[C@@H](C)c1ccc(NC(=O)[C@@H](NC(=O)C2(F)CC2)C(C2CC2)C2CC2)c(F)c1 [Compound 280]
< 10	100 to 10000		COC(=O)N1CCC[C@H]1C(=O)N[C@@H](C(=O)N1CCN(C)[C@H](C)C1)[C@@H](C)c1ccc(NC(=O)[C@@H](NC(=O)C2(F)CC2)C(C2CC2)C2CC2)c(F)c1 [Compound 281]
< 10	10 to 100		CCOC(=O)N[C@@H](C)C(=O)N[C@@H](C(=O)N1CCN(C)[C@H](C)C1)[C@@H](C)c1ccc(NC(=O)[C@@H](NC(=O)C2(F)CC2)C(C2CC2)C2CC2)c(F)c1 [Compound 282]

The next lines start with the compound.

Compound	IC50 (IL-17A/A) [nM]	IC50 (IL-17A/F) [nM]	IL17AF HEK Blue pIC50 (IL-17A/F)
CCC(OC)C(=O)N[C@@H](C(=O)N1CCN(C)CC1)[C@@H](C)c1ccc(NC(=O)[C@@H](NC(=O)c2ccnn2CC)C(C2CC2)C2CC2)c(F)c1 (single isomer, unassigned) [Compound 339]	10 to 100	100 to 10000	
CCC(OC)C(=O)N[C@@H](C(=O)N1CCN(C)CC1)[C@@H](C)c1ccc(NC(=O)[C@@H](NC(=O)c2ccnn2CC)C(C2CC2)C2CC2)c(F)c1 (single isomer, unassigned) [Compound 340]	< 10	10 to 100	
CCn1nccc1C(=O)N[C@H](C(=O)Nc1ccc([C@H](C)[C@@H](NC(=O)C(C)Cc2cc(O)no2)C(=O)N2CCN(C)[C@H](C)C2)cc1F)C(C1CC1)C1CC1 (single isomer, unassigned) [Compound 343]	10 to 100	100 to 10000	
CCn1nccc1C(=O)N[C@H](C(=O)Nc1ccc([C@H](C)[C@@H](NC(=O)C(C)Cc2cc(O)no2)C(=O)N2CCN(C)[C@H](C)C2)cc1F)C(C1CC1)C1CC1 (single isomer, unassigned) [Compound 344]	< 10	10 to 100	
CCC(=O)NC(C(=O)N1CCN(C)CC1)C(c1ccc(NC(=O)[C@@H](NC(=O)c2ccnn2CC)C(C2CC2)C2CC2)c(F)c1)C(F)(F)F (single isomer, unassigned) [Compound 350]	100 to 10000	100 to 10000	
CCn1nccc1C(=O)N[C@H](C(=O)Nc1ccc(C(C(NC(=O)[C@H](C)OC)C(=O)N2CCN(C)[C@H](C)C2)C(F)(F)F)cc1F)C(C1CC1)C1CC1 (single isomer, unassigned) [Compound 351]	100 to 10000	100 to 10000	
CCC(=O)NC(C(=O)N1CCN(C)CC1)C(c1ccc(NC(=O)[C@@H](NC(=O)c2ccnn2CC)C(C2CC2)C2CC2)c(F)c1)C(F)(F)F (single isomer, unassigned) [Compound 352]	100 to 10000		C (7>C≥5)
CCn1nccc1C(=O)N[C@H](C(=O)Nc1ccc(C(C(NC(=O)[C@H](C)OC)C(=O)N2CCN(C)[C@H](C)C2)C(F)(F)F)cc1F)C(C1CC1)C1CC1 (single isomer, unassigned) [Compound 353]	< 10	10 to 100	
CCn1nccc1C(=O)N[C@H](C(=O)Nc1ccc(C(C(NC(=O)[C@H](C)OC)C(=O)N2CCN(C)[C@H](C)C2)C(F)(F)F)cc1F)C(C1CC1)C1CC1 (single isomer, unassigned) [Compound 355]	100 to 10000	100 to 10000	
CCC(=O)NC(C(=O)N1CCN(C)CC1)C(c1ccc(NC(=O)[C@@H](NC(=O)c2ccnn2CC)C(C2CC2)C2CC2)c(F)c1)C(F)(F)F (single isomer, unassigned) [Compound 356]	10 to 100		C (7>C≥5)
CCn1nccc1C(=O)N[C@H](C(=O)Nc1ccc(C(C(NC(=O)[C@H](C)OC)C(=O)N2CCN(C)[C@H](C)C2)C(F)(F)F)cc1F)C(C1CC1)C1CC1 (single isomer, unassigned) [Compound 357]	100 to 10000	100 to 10000	
CCC(=O)N[C@@H](C(=O)N1CCN(C)CC1)[C@@H](C)c1ccc(NC(=O)[C@@H](NC(=O)c2ccnn2CCF)C(C2CC2)C2CC2)c(F)c1 [Compound 216]	10 to 100	10 to 100	
CCn1nccc1C(=O)N[C@H](C(=O)Nc1ccc([C@H](C)[C@@H](NC(=O)[C@H](C)OC)C(=O)N2CCN(C)CC2)cc1F)C(C1CC1)C1CC1 [Compound 222]	< 10	10 to 100	
